Source: ChEMBL document CHEMBL3585260, “2-Aminoalkyl nicotinamide derivatives as pure inverse agonists of the ghrelin receptor” (Bioorg Med Chem Lett, 2015)
Values belong to the molecule of their own block, whether it stands above or below them. Activity calls are given as the source filed them. No cut-off for these calls is given here.

What was measured:
[1] = target: Growth hormone secretagogue receptor type 1 (Rattus norvegicus) (UniProt O08725); assay: Inverse agonist activity at rat ghrelin receptor expressed in HEK293 cells assessed as blockade of constitutive receptor activity b by NFAT-RE-luciferase reporter gene assay; assay type: cell-based
Sequence of Growth hormone secretagogue receptor type 1 (Rattus norvegicus) (O08725 whole entry): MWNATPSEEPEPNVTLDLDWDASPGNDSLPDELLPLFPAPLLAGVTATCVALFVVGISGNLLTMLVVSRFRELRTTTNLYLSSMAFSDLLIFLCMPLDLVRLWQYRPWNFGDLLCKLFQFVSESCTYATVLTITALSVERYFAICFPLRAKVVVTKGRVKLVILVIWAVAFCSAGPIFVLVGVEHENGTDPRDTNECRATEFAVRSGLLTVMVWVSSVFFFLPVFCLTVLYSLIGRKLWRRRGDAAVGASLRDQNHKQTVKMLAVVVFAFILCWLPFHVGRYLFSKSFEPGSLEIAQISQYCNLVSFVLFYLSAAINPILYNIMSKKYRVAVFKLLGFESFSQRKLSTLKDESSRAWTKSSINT

HEK293 [2] = assay: Toxicity against HEK293 cells assessed as cell viability at >10 uM by alamar blue staining method; assay type: cell-based; settings: human
HEK293 [3] = assay: Toxicity against HEK293 cells assessed as cell viability up to 10 uM by alamar blue staining method; assay type: cell-based; settings: human
[4] = target: Neurotensin receptor type 2 (Homo sapiens) (UniProt O95665); assay: Inverse agonist activity at NTSR2 (unknown origin) expressed in HEK293 cells assessed as suppression of constitutive receptor activity by NFAT-RE-luciferase reporter gene assay; assay type: cell-based
Sequence of Neurotensin receptor type 2 (Homo sapiens) (O95665 whole entry): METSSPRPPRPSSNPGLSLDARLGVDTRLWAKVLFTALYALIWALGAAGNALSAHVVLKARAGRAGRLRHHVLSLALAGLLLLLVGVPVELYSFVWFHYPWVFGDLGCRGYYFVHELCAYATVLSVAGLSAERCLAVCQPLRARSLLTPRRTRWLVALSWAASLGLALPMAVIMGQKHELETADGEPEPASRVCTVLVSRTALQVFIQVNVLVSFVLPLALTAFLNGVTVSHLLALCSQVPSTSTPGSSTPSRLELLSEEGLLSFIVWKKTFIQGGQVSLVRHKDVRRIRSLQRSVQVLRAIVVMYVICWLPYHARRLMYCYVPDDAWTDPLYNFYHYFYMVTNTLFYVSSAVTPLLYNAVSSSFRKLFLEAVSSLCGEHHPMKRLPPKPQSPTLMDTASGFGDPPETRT

[5] = target: T1, Growth hormone secretagogue receptor type 1 (Rattus norvegicus, UniProt O08725); assay: Inverse agonist activity at rat ghrelin receptor expressed in HEK293 cells by NFAT-RE-luciferase reporter gene assay; assay type: cell-based
T1 sequence (O08725 whole entry): as the sequence (O08725 whole entry) above

[6] = target: T2, Growth hormone secretagogue receptor type 1 (Homo sapiens, UniProt Q92847); assay: Binding affinity to ghrelin receptor (unknown origin)
T2 sequence (Q92847 whole entry): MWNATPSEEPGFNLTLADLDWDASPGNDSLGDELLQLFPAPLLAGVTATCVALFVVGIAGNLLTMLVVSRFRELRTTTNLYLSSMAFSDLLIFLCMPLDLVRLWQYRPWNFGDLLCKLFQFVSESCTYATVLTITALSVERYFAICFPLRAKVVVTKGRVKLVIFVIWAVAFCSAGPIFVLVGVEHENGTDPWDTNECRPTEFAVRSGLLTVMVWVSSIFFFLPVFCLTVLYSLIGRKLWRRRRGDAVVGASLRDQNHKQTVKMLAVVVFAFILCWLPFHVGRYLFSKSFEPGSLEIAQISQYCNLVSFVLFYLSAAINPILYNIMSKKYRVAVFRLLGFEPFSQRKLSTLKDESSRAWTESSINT

[7] = target: T1, Growth hormone secretagogue receptor type 1; assay: Inverse agonist activity at rat ghrelin receptor by inositol phosphate turnover assay; assay type: functional
[8] = target: T1, Growth hormone secretagogue receptor type 1; assay: Inverse agonist activity at rat ghrelin receptor expressed in HEK293 cells by inositol phosphate turnover assay; assay type: functional, cell-based
[9] = Toxicity against HEK293 cells assessed as cell viability at 50 uM by alamar blue staining method; assay type: cell-based; settings: human, read-out: Activity
[10] = Toxicity against HEK293 cells assessed as cell viability at 2 uM by alamar blue staining method; assay type: cell-based; settings: human, read-out: Activity
[11] = Ratio of drug level in brain to plasma in mouse at 10 mg/kg, ip administered as single dose after 1 hr; assay type: ADME, organism-based; settings: brain and plasma, read-out: BPR
[12] = target: Cannabinoid receptor 1 (Homo sapiens) (UniProt P21554); assay: Inhibition of radioligand binding at human CB1 receptor at 10 uM
Sequence of Cannabinoid receptor 1 (Homo sapiens) (P21554 whole entry): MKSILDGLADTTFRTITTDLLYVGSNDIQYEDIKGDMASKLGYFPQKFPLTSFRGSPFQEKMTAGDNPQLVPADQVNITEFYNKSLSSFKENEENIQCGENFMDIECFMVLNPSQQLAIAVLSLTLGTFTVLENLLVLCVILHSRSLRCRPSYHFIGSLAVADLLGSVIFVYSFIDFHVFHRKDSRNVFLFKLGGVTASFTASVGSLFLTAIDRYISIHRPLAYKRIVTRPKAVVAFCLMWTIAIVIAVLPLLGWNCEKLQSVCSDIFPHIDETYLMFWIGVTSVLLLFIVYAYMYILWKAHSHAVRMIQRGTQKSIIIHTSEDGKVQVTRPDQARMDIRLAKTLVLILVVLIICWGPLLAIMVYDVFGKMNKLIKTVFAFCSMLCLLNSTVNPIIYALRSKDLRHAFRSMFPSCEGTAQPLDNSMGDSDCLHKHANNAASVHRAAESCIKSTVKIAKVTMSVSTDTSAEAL

Rattus norvegicus [13] = assay: Toxicity in rat assessed as induction of sedation at 10 to 30 mg/kg, ip; assay type: organism-based; settings: in vivo
[14] = target: Cholecystokinin receptor type A (Homo sapiens) (UniProt P32238); assay: Inhibition of radioligand binding at human CCKA at 10 uM
Sequence of Cholecystokinin receptor type A (Homo sapiens) (P32238 whole entry): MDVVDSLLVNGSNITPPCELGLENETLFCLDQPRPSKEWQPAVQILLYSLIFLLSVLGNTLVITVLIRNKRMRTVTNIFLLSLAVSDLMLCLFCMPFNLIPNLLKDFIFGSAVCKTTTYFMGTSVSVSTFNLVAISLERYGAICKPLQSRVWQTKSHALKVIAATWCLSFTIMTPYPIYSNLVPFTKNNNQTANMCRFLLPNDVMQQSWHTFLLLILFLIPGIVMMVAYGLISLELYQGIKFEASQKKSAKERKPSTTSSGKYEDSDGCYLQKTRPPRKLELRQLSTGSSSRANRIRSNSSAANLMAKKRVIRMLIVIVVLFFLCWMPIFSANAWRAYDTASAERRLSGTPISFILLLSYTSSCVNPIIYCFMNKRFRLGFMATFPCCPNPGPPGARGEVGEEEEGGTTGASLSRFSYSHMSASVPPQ

[15] = target: Neuropeptide Y receptor type 1 (Homo sapiens) (UniProt P25929); assay: Inhibition of radioligand binding at human neuropeptide Y1 receptor at 10 uM
[16] = Oral bioavailability in mouse at 10 mg/kg, administered as single dose; assay type: ADME, organism-based; settings: in vivo
[17] = target: D(2) dopamine receptor (Homo sapiens) (UniProt P14416); assay: Inhibition of radioligand binding at dopamine D2 receptor (unknown origin) at 10 uM
Mus musculus [18] = assay: Inhibition of ghrelin-induced food intake in mouse model of high fat diet-induced obesity at 10 mg/kg, sc dosed twice daily for 14 days; assay type: functional, organism-based
[19] = target: Adrenergic receptor alpha-2 (Homo sapiens) (UniProt P08913+P18825+P18089); assay: Inhibition of radioligand binding at alpha-2 adrenergic receptor (unknown origin) at 10 uM
Mus musculus [20] = assay: Inhibition of ghrelin-induced food intake in mouse model of high fat diet-induced obesity at 30 mg/kg, sc dosed twice daily for 14 days; assay type: functional, organism-based
Rattus norvegicus [21] = assay: Inhibition of ghrelin-induced food intake in rat at 15 to 30 mg/kg, ip after 30 mins; assay type: functional, organism-based
Liver microsome = assay: Drug metabolism in human liver microsomes; assay type: ADME
Mus musculus [22] = assay: Toxicity in mouse model of high fat diet-induced obesity assessed as induction of sedation at 10 and 30 mg/kg, sc; assay type: organism-based; settings: in vivo
hERG (KCNH2) = hERG (KCNH2) (Homo sapiens, UniProt Q12809); assay: Inhibition of human ERG at 10 uM
Sequence of hERG (KCNH2) (Q12809 whole entry): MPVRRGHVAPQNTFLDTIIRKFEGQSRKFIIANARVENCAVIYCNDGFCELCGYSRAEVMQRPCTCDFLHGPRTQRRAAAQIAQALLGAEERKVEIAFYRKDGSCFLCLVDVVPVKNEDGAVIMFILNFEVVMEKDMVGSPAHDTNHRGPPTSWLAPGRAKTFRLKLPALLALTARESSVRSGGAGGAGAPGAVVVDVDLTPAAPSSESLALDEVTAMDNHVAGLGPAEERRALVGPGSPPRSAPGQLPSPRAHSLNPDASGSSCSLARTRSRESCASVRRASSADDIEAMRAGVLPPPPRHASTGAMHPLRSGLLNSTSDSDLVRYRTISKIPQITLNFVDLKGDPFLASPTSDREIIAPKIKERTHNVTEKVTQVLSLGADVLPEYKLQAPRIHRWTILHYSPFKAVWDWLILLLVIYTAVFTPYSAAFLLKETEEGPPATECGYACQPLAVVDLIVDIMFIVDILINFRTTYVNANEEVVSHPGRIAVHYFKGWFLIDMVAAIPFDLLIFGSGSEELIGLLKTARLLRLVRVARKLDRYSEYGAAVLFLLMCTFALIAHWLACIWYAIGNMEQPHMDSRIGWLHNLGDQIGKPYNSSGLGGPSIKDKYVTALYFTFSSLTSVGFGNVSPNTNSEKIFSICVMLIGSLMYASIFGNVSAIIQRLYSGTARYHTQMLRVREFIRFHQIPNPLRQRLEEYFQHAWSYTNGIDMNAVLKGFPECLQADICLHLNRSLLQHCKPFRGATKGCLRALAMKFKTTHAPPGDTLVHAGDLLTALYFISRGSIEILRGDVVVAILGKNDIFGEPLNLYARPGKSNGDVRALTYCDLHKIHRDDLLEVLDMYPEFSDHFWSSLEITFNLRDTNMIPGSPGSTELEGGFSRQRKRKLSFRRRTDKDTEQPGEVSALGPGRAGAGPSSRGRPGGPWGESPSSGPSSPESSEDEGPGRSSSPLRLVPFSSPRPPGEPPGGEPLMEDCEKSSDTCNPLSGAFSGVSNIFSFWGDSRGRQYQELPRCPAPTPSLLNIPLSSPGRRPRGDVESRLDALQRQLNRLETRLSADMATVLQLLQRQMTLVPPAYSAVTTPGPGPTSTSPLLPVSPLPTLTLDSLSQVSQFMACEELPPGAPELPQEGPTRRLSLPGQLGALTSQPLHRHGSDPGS

Rattus norvegicus [23] = assay: Inhibition of ghrelin-induced growth hormone release in rat at 3 mg/kg, iv pre-treated 5 mins before ghrelin challenge; assay type: functional, organism-based
[24] = target: T2, Growth hormone secretagogue receptor type 1; assay: Antagonist activity against ghrelin receptor (unknown origin) expressed in CHO cells assessed as inhibition of ghrelin-induced calcium response; assay type: functional, cell-based
[25] = target: D(1A) dopamine receptor (Homo sapiens) (UniProt P21728); assay: Inhibition of radioligand binding at dopamine D1 receptor (unknown origin) at 10 uM
CYP3A4 = CYP3A4 (Homo sapiens, UniProt P08684); assay: Inhibition of CYP3A4 (unknown origin) at 10 uM; assay type: ADME
Salmonella typhimurium = assay: Mutagenicity in Salmonella typhimurium by Ames test; assay type: toxicity, organism-based; settings: salmonella enterica subsp. enterica serovar typhimurium
[26] = target: Melanocortin receptor 4 (Homo sapiens) (UniProt P32245); assay: Inhibition of radioligand binding at human melanocortin MC4 receptor at 10 uM
Rattus norvegicus [27] = assay: Inhibition of ghrelin-induced gastric emptying in rat assessed as suppression of gastric motility at 10 mg/kg, sc pre-treated 15 mins before ghrelin challenge; assay type: functional, organism-based; settings: Stomach
Rattus norvegicus [28] = assay: Toxicity in rat assessed as induction of behavioral effect at 10 to 30 mg/kg, ip; assay type: organism-based; settings: in vivo
[29] = Inhibition of ghrelin-induced growth hormone release in rat primary pituitary cells; assay type: functional, cell-based; settings: Pituitary gland cell
[30] = target: Motilin receptor (Homo sapiens) (UniProt O43193); assay: Inhibition of radioligand binding at human MTLR1 at 10 uM
Sequence of Motilin receptor (Homo sapiens) (O43193 whole entry): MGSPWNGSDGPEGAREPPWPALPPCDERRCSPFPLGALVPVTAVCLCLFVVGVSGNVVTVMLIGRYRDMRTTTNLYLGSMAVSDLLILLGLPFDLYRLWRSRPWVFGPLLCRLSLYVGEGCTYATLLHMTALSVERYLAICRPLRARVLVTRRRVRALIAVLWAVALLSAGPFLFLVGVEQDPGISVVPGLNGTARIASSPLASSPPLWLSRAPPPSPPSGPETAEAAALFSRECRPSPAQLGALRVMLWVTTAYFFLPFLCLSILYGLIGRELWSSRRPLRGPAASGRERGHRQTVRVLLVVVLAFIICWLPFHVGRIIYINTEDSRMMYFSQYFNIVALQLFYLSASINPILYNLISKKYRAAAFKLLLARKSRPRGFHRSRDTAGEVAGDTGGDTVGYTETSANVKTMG

Rattus norvegicus [31] = assay: Inhibition of ghrelin-induced gastric emptying in rat assessed as suppression of gastric content at 10 mg/kg, sc pre-treated 15 mins before ghrelin challenge; assay type: functional, organism-based; settings: Stomach
[32] = target: 5-hydroxytryptamine receptor 2C (Homo sapiens) (UniProt P28335); assay: Inhibition of radioligand binding at human 5HT2C receptor at 10 uM
Sequence of 5-hydroxytryptamine receptor 2C (Homo sapiens) (P28335 whole entry): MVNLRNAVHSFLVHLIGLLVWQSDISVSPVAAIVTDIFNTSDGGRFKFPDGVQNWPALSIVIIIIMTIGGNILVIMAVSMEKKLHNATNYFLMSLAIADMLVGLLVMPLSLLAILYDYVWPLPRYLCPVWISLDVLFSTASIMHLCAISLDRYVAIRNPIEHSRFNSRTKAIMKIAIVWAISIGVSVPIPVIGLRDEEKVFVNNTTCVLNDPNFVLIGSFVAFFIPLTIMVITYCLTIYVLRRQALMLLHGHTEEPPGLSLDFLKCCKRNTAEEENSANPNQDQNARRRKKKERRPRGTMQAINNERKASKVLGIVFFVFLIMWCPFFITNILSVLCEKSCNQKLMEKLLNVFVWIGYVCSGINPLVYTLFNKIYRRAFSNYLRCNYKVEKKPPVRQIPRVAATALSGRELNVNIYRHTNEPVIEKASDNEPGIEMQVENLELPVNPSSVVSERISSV

Mus musculus [33] = assay: Toxicity in mouse model of high fat diet-induced obesity assessed as induction of behavioral effect at 10 and 30 mg/kg, sc; assay type: organism-based; settings: in vivo
[34] = Bioavailability in mouse at 10 mg/kg, sc administered as single dose; assay type: ADME, organism-based; settings: in vivo
[35] = target: Sodium-dependent serotonin transporter (Homo sapiens) (UniProt P31645); assay: Inhibition of radioligand binding at human SERT at 10 uM
Sequence of Sodium-dependent serotonin transporter (Homo sapiens) (P31645 whole entry, looked up): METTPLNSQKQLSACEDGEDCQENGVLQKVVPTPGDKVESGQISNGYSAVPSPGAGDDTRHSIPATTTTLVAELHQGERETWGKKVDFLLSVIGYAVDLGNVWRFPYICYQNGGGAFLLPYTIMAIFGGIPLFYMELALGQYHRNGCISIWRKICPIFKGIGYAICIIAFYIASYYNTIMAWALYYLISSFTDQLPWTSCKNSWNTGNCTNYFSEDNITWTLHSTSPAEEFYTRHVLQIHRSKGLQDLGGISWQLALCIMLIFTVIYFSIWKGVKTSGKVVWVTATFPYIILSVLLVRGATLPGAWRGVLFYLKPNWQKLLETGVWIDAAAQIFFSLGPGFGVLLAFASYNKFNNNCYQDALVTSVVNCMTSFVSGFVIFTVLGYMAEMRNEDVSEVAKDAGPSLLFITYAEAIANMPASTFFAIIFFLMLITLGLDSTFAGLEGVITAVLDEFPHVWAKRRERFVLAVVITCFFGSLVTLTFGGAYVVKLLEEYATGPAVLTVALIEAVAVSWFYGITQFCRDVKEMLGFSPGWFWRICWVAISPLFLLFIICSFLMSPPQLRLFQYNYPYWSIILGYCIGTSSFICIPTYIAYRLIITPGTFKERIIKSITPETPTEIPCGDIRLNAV

[36] = Total clearance in mouse at 10 mg/kg administered as single dose; assay type: ADME, organism-based; settings: in vivo
[37] = Bioavailability in mouse at 10 mg/kg, ip administered as single dose; assay type: ADME, organism-based; settings: in vivo
[38] = target: Sodium-dependent noradrenaline transporter (Homo sapiens) (UniProt P23975); assay: Inhibition of radioligand binding at human NET at 10 uM
[39] = Protein binding in human plasma; assay type: ADME, cell-free; settings: read-out: PPB

Molecule: CC(C)N1[C@@H]2CC[C@H]1C=C(c1cnc(NCc3ccc4c(c3)OCC4)c(C(=O)NC[C@H]3COc4ccccc4O3)c1)C2 (mixture of isomers)
- Efficacy [1]: > 95%
- Activity (HEK293 [2]): Toxic
- Activity (HEK293 [3]): Toxic
- Activity [4]: inactive
- IC50 [5]: 4.1 nM
- IC50 [6]: 0.23 nM

Molecule: CC(=O)N1CC=C(c2cnc(NCc3ccc4c(c3)OCO4)c(C(=O)NC[C@H]3COc4ccccc4O3)c2)CC1
- Efficacy [1]: > 95%
- Activity [4]: inactive
- IC50 [5]: 2500 nM
- IC50 [6]: 42 nM

Molecule: O=C(NCC1COc2ccccc2O1)c1cc(-c2ccnc(Cl)c2)cnc1NCc1ccc2c(c1)OCC2 (racemic)
- Efficacy [1]: > 95%
- Activity [4]: inactive
- IC50 [5]: 390 nM
- IC50 [6]: 6.9 nM

Molecule: CCn1cc(-c2cnc(NCc3ccc4c(c3)OCO4)c(C(=O)NC[C@@H]3COc4ccccc4O3)c2)cn1
- Efficacy [1]: > 95%
- Activity [4]: inactive
- IC50 [5]: 5500 nM
- IC50 [6]: 180 nM

Molecule: CCCn1cc(-c2cnc(NCc3ccc4ncsc4c3)c(C(=O)NCC3COc4ccccc4O3)c2)cn1 (stereo not drawn)
- Efficacy [1]: > 95%
- Activity [4]: inactive
- IC50 [5]: 900 nM
- IC50 [6]: 260 nM

Molecule: CCCn1cc(-c2cnc(NCc3ccc4occc4c3)c(C(=O)NCC3COc4ccccc4O3)c2)cn1 (stereo not drawn)
- Efficacy [1]: > 95%
- Activity [4]: inactive
- IC50 [5]: 720 nM
- IC50 [6]: 150 nM

Molecule: O=C(NC[C@H]1COc2ccccc2O1)c1cc(N2CCOCC2)cnc1NCc1ccc2c(c1)OCO2
- Efficacy [1]: > 95%
- Activity [4]: inactive
- IC50 [5]: 2000 nM
- IC50 [6]: 47 nM

Molecule: CCCn1cc(-c2cnc(NCc3ccc4sccc4c3)c(C(=O)NCC3COc4ccccc4O3)c2)cn1 (racemic)
- Efficacy [1]: > 95%
- Activity [4]: inactive
- viability at 50 µM [9]: 92%
- IC50 [5]: 400 nM
- viability at 2 µM [10]: 101%
- IC50 [6]: 84 nM

Molecule: O=C(NC[C@H]1COc2ccccc2O1)c1cc(N2C[C@H]3CC[C@@H](C2)O3)cnc1NCc1ccc2c(c1)OCO2
- Efficacy [1]: > 95%
- Activity [4]: inactive
- IC50 [5]: 560 nM
- IC50 [6]: 5.4 nM

More lines, main results first:

- IC50 [7]: 5.2 nM
- IC50 [8]: 146 nM
- IC50 [5]: 250 nM
Molecule: H-RPKPFQWFWLL-NH2

- Efficacy [1]: > 95%
- Activity [4]: inactive
- IC50 [5]: 170 nM
- IC50 [6]: 36 nM
Molecule: CCCn1cc(-c2cnc(NCc3ccc4c(c3)OCO4)c(C(=O)NCC3COc4ccccc4O3)c2)cn1 (stereo not drawn)
- viability at 50 µM [9]: 69%
- viability at 2 µM [10]: 85%

- Efficacy [1]: > 95%
- Activity [4]: inactive
- IC50 [5]: 110 nM
- IC50 [6]: 24 nM
Molecule: CCn1cc(-c2cnc(NCc3ccc4c(c3)OCO4)c(C(=O)NC[C@H]3COc4ccccc4O3)c2)cn1

- Efficacy [1]: > 95%
- Activity [4]: inactive
- IC50 [5]: 350 nM
- IC50 [6]: 7.2 nM
Molecule: C[C@@H]1CN(c2cnc(NCc3ccc4c(c3)OCC4)c(C(=O)NC[C@H]3COc4ccccc4O3)c2)C[C@H](C)O1

- Efficacy [1]: > 95%
- Activity [4]: inactive
- IC50 [5]: 140 nM
- IC50 [6]: 11 nM
Molecule: CCCn1cc(-c2cnc(NCc3ccc4c(c3)OCC4)c(C(=O)NCC3COc4ccccc4O3)c2)cn1 (racemic)

- Kp at 1 h [11]: 0.005
- inhibition [12]: 0%
- inhibition [14]: 0%
- inhibition [15]: 1%
- Efficacy [1]: > 95%
- bioavailability [16]: 0.64%
- inhibition [17]: 7.1%
- inhibition [19]: 12.6%
- Drug metabolism (Liver microsome): 302 pmol/min/mg
- IC50 [24]: 31 nM
- inhibition [25]: 5.6%
- inhibition at 10 µM (CYP3A4): 26%
- inhibition [26]: 2.4%
- Activity [4]: inactive
- inhibition [30]: 18.8%
- inhibition [32]: 7.1%
- IC50 [5]: 47 nM
- bioavailability [34]: 99.1%
- inhibition [35]: 0%
- clearance [36]: 68.2 mL/min/kg
- bioavailability [37]: 83.2%
- IC50 [6]: 0.96 nM
- inhibition [38]: 0%
- fraction unbound [39]: 0.01
Molecule: CC(=O)N1[C@@H]2CC[C@H]1C=C(c1cnc(NCc3ccc4c(c3)OCC4)c(C(=O)NC[C@H]3COc4ccccc4O3)c1)C2 (mixture of isomers)
- Activity (Rattus norvegicus [13]): Non-toxic
- inhibition (Mus musculus [18]): Active
- inhibition (Mus musculus [20]): Active
- inhibition (Rattus norvegicus [21]): Active
- Activity (Mus musculus [22]): Non-toxic
- inhibition at 10 µM (hERG (KCNH2)): 36%
- inhibition (Rattus norvegicus [23]): Active
- Activity (Salmonella typhimurium): Non-toxic
- inhibition (Rattus norvegicus [27]): Active
- Activity (Rattus norvegicus [28]): Non-toxic
- IC50 [29]: 13 nM
- inhibition (Rattus norvegicus [31]): Active
- Activity (Mus musculus [33]): Non-toxic
